# In patent US20240238317A1, “METHODS FOR REDUCING INTRAOCULAR PRESSURE” (UNIVERSITY OF MISSISSIPPI, priority 2021, published 2024):
# Where “and” joins values, the source holds several entries; their conditions need not be identical. Equal entries are not always repeated.
# Tests used:
# [1] = test system: IOP in test eye of DB rabbits; experiment: Combination dose multiple day application study: IOP lowering after topical co-administration of two formulations (second 15 minutes after first)
# [2] = test system: IOP in test eye of DB rabbits; experiment: Single treatment multiple day application study: IOP lowering after topical administration of one formulation (QD, 5 days); format: in vivo, pigmented (Dutch Belted; DB) rabbits; parameters: Test eye IOP: unit not given here; conditions: for Drop in IOP: test eye
# Source text: The rabbits were split into three groups.
# The IOP profile following multi-day (QD, 5 days) exposure to a single formulation, in pigmented DB rabbits, is presented in FIGS. 1-26.
# [3] = Average of days 1, 3, 5, 30 min
# [4] = Average of days 1, 3, 5, 60 min
# [5] = Average of days 1, 3, 5, 90 min
# [6] = Average of days 1, 3, 5, 120 min
# [7] = Average of days 1, 3, 5, 150 min
# [8] = Average of days 1, 3, 5, 180 min
# [9] = Average of days 1, 3, 5, 240 min
# [10] = Average of days 1, 3, 5, 300 min
# [11] = Average of days 1, 3, 5, 360 min
# [12] = Average of days 1, 3, 5, 420 min
# [13] = Average of days 1, 3, 5, 480 min
# [14] = Average of days 1, 3, 5, 540 min
# [15] = Average of days 1, 3, 5, 1440 min
structure (smiles),measurement,setting,value
CC(C)OC(=O)CCC/C=C\C[C@@H]1[C@@H](CC[C@@H](O)CCc2ccccc2)[C@H](O)C[C@@H]1O [Latanoprost],comparison of IOP lowering of combinations with single treatments,[1],decreased the efficacy of both THC-VHS-NEC and Rhopressa® when combined
same,Test eye IOP,"[2]; Average of days 1, 3, 5, 0 min",24.6
same,Test eye IOP,[2]; [3],20.1
same,Test eye IOP,[2]; [4],19.6
same,Test eye IOP,[2]; [5],19.5
same,Test eye IOP,[2]; [6],19.7
same,Test eye IOP,[2]; [7],19.6
same,Test eye IOP,[2]; [8],20.0
same,Test eye IOP,[2]; [9],19.5
same,Test eye IOP,[2]; [10],19.7
same,Test eye IOP,[2]; [11],19.9
same,Test eye IOP,[2]; [12],21.0
same,Test eye IOP,[2]; [13],23.9
same,Test eye IOP,[2]; [14],24.8
same,Test eye IOP,[2]; [15],24.4
same,Drop in IOP,"[2]; Average of days 1, 3, 5, 0 min",0.0%
same,Drop in IOP,[2]; [3],−18.3%
same,Drop in IOP,[2]; [4],−20.3%
same,Drop in IOP,[2]; [5],−20.5%
same,Drop in IOP,[2]; [6],−19.8%
same,Drop in IOP,[2]; [7],−20.5%
same,Drop in IOP,[2]; [8],−18.7%
same,Drop in IOP,[2]; [9],−20.6%
same,Drop in IOP,[2]; [10],−21.7%
same,Drop in IOP,[2]; [11],−19.1%
same,Drop in IOP,[2]; [12],−14.5%
same,Drop in IOP,[2]; [13],−2.9%
same,Drop in IOP,[2]; [14],0.7%
same,Drop in IOP,[2]; [15],−2.2%
same,Test eye IOP,"[2]; Day 1, 0 min",25.2
same,Test eye IOP,"[2]; Day 1, 30 min",20.0
same,Test eye IOP,"[2]; Day 1, 60 min",19.6
same,Test eye IOP,"[2]; Day 1, 90 min",19.2
same,Test eye IOP,"[2]; Day 1, 120 min",19.8
same,Test eye IOP,"[2]; Day 1, 150 min",19.4
same,Test eye IOP,"[2]; Day 1, 180 min",20.2
same,Test eye IOP,"[2]; Day 1, 240 min",19.7
same,Test eye IOP,"[2]; Day 1, 300 min",19.7
same,Test eye IOP,"[2]; Day 1, 360 min",19.7
same,Test eye IOP,"[2]; Day 1, 420 min",20.9
same,Test eye IOP,"[2]; Day 1, 480 min",23.8
same,Test eye IOP,"[2]; Day 1, 540 min",25.2
same,Test eye IOP,"[2]; Day 1, 1440 min",24.4
same,Drop in IOP,"[2]; Day 1, 0 min",0.0%
same,Drop in IOP,"[2]; Day 1, 30 min",−20.5%
same,Drop in IOP,"[2]; Day 1, 60 min",−21.9%
same,Drop in IOP,"[2]; Day 1, 90 min",−23.7%
same,Drop in IOP,"[2]; Day 1, 120 min",−21.3%
same,Drop in IOP,"[2]; Day 1, 150 min",−22.9%
same,Drop in IOP,"[2]; Day 1, 180 min",−19.7%
same,Drop in IOP,"[2]; Day 1, 240 min",−21.8%
same,Drop in IOP,"[2]; Day 1, 300 min",−21.7%
same,Drop in IOP,"[2]; Day 1, 360 min",−21.7%
same,Drop in IOP,"[2]; Day 1, 420 min",−16.8%
same,Drop in IOP,"[2]; Day 1, 480 min",−5.4%
same,Drop in IOP,"[2]; Day 1, 540 min",0.3%
same,Drop in IOP,"[2]; Day 1, 1440 min",−3.0%
same,Test eye IOP,"[2]; Day 3, 0 min",24.6
same,Test eye IOP,"[2]; Day 3, 30 min",19.8
same,Test eye IOP,"[2]; Day 3, 60 min",19.5
same,Test eye IOP,"[2]; Day 3, 90 min",19.8
same,Test eye IOP,"[2]; Day 3, 120 min",19.6
same,Test eye IOP,"[2]; Day 3, 150 min",19.6
same,Test eye IOP,"[2]; Day 3, 180 min",20.0
same,Test eye IOP,"[2]; Day 3, 240 min",19.6
same,Test eye IOP,"[2]; Day 3, 360 min",19.6
same,Test eye IOP,"[2]; Day 3, 420 min",21.0
same,Test eye IOP,"[2]; Day 3, 480 min",23.7
same,Test eye IOP,"[2]; Day 3, 540 min",24.5
same,Test eye IOP,"[2]; Day 3, 1440 min",24.2
same,Drop in IOP,"[2]; Day 3, 0 min",0.0%
same,Drop in IOP,"[2]; Day 3, 30 min",−19.4%
same,Drop in IOP,"[2]; Day 3, 60 min",−20.7%
same,Drop in IOP,"[2]; Day 3, 90 min",−19.6%
same,Drop in IOP,"[2]; Day 3, 120 min",−20.3%
same,Drop in IOP,"[2]; Day 3, 150 min",−20.3%
same,Drop in IOP,"[2]; Day 3, 180 min",−18.7%
same,Drop in IOP,"[2]; Day 3, 240 min",−20.5%
same,Drop in IOP,"[2]; Day 3, 360 min",−20.3%
same,Drop in IOP,"[2]; Day 3, 420 min",−14.7%
same,Drop in IOP,"[2]; Day 3, 480 min",−3.6%
same,Drop in IOP,"[2]; Day 3, 540 min",−0.4%
same,Drop in IOP,"[2]; Day 3, 1440 min",−3.6%
same,Test eye IOP,"[2]; Day 5, 0 min",24.1
same,Test eye IOP,"[2]; Day 5, 30 min",20.4
same,Test eye IOP,"[2]; Day 5, 60 min",19.7
same,Test eye IOP,"[2]; Day 5, 90 min",19.7
same,Test eye IOP,"[2]; Day 5, 120 min",19.8
same,Test eye IOP,"[2]; Day 5, 150 min",19.7
same,Test eye IOP,"[2]; Day 5, 180 min",19.8
same,Test eye IOP,"[2]; Day 5, 240 min",19.3
same,Test eye IOP,"[2]; Day 5, 360 min",20.3
same,Test eye IOP,"[2]; Day 5, 420 min",21.2
same,Test eye IOP,"[2]; Day 5, 480 min",24.1
same,Test eye IOP,"[2]; Day 5, 540 min",24.6
same,Test eye IOP,"[2]; Day 5, 1440 min",24.7
same,Drop in IOP,"[2]; Day 5, 0 min",0.0%
same,Drop in IOP,"[2]; Day 5, 30 min",−15.2%
same,Drop in IOP,"[2]; Day 5, 60 min",−18.2%
same,Drop in IOP,"[2]; Day 5, 90 min",−18.2%
same,Drop in IOP,"[2]; Day 5, 120 min",−17.8%
same,Drop in IOP,"[2]; Day 5, 150 min",−18.2%
same,Drop in IOP,"[2]; Day 5, 180 min",−17.5%
same,Drop in IOP,"[2]; Day 5, 240 min",−19.6%
same,Drop in IOP,"[2]; Day 5, 360 min",−15.4%
same,Drop in IOP,"[2]; Day 5, 420 min",−12.0%
same,Drop in IOP,"[2]; Day 5, 480 min",0.3%
same,Drop in IOP,"[2]; Day 5, 540 min",2.1%
same,Drop in IOP,"[2]; Day 5, 1440 min",0.0%
same,IOP returned to baseline (time),[2]; single formulation,≤ 480 min
same,average max drop in IOP,"[2]; single formulation, QD, 5 days",about 21.3+2.1%
same,Max IOP drop (%),"[2]; single formulation, Day 1",−23.7%
same,Max IOP drop (mmHg),"[2]; single formulation, Day 1",6.0 mmHg and 6 mmHg
same,Time of max IOP drop (%),"[2]; single formulation, Day 1",90 min
same,Time of max IOP drop (mmHg),"[2]; single formulation, Day 1",90 min
same,Max IOP drop (%),"[2]; single formulation, Day 3",−20.7%
same,Max IOP drop (mmHg),"[2]; single formulation, Day 3",5.1 mmHg
same,Time of max IOP drop (%),"[2]; single formulation, Day 3",60 min
same,Time of max IOP drop (mmHg),"[2]; single formulation, Day 3",60 min
same,Max IOP drop (%),"[2]; single formulation, Day 5",−19.6%
same,Max IOP drop (mmHg),"[2]; single formulation, Day 5",4.7 mmHg
same,Time of max IOP drop (%),"[2]; single formulation, Day 5",240 min
same,Time of max IOP drop (mmHg),"[2]; single formulation, Day 5",240 min
same,time to max drop in IOP,"[2]; single formulation, day 1",60 min
same,time to max drop in IOP,"[2]; single formulation, day 3",90 min
same,time to max drop in IOP,"[2]; single formulation, day 5",240 min
same,maintained average drop in IOP,"[2]; single formulation, from 30 to 420 mins",19.4 ± 1.9%
